This experiment deals with T1, hDAGL-β (Homo sapiens, UniProt Q8NCG7).
T1 sequence (Q8NCG7 1-672): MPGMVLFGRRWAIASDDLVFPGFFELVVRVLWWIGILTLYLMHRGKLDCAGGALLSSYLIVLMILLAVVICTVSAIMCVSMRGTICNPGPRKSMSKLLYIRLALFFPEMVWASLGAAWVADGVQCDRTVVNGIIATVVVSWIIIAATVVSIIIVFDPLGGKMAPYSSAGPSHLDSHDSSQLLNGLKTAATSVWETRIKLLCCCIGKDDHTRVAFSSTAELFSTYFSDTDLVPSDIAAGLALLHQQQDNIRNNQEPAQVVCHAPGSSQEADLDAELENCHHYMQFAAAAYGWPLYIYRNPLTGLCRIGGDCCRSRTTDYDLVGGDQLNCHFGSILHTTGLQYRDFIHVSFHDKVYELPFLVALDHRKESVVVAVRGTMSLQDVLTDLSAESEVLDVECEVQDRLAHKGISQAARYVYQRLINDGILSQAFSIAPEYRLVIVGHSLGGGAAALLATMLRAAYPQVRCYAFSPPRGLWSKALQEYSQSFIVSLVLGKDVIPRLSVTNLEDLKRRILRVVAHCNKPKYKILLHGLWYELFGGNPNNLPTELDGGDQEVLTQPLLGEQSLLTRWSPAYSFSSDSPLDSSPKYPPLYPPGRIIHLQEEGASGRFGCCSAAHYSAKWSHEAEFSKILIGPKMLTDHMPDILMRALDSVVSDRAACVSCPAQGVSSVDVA
Put plainly: Biochemical assay with para-nitrophenylbutyrate as surrogate substrate on human DAGL-β. The note with it: n=4.

Usually IC50 stands for the point on the concentration scale where inhibition reaches its midpoint. A low value points to greater potency in that assay.

As to `Cc1ccc(-c2cnc3nc(C(=O)CCCCCc4ccccc4)oc3c2)cc1` [Compound 25, 1-(6-(p-Tolyl)oxazolo[4,5-b]pyridin-2-yl)-6-phenylhexan-1-one], half-maximal inhibition (IC50) required 7.94 nM.
